Experimental data reported in patent publication US20200101108A1, “METHODS OF TREATING T CELL EXHAUSTION BY INHIBITING OR MODULATING T CELL RECEPTOR SIGNALING” (THE BOARD OF TRUSTEES OF THE LE-LAND STANDFORD JUNIOR …, priority 2017, published 2020).

Assays:
[1] = test system: HA-GD2.28z CAR T cells; assay: Cytokine release after expansion in drug and removal of drug before tumor co-culture; format: cell-based, human
[2] = molecular target: Fyn (Homo sapiens, UniProt P06241); settings: cited from earlier work
[3] = test system: Src kinases; settings: cited from earlier work
[4] = molecular target: Lck (Homo sapiens, UniProt P06239); settings: cited from earlier work
[5] = test system: HA-GD2.28z CAR T cells; assay: Incucyte cytotoxicity after expansion in drug and removal of drug before tumor co-culture; settings: expanded in drug, drug removed 18-24 hours before 72 hours co-culture
[6] = test system: HA-GD2.28z CAR T cells; assay: Cytokine release assay (ELISA), CAR T cells co-cultured with GD2-overexpressing nalm6 in presence of drug; settings: drug present during 24 hours co-culture
[7] = test system: CD19.28z CAR T cells; assay: CAR T cell activation and degranulation (CD69/CD107a) on co-culture with Nalm6 tumor cells in presence of drug; settings: nanomolar levels; 6 hours co-culture with tumor
[8] = test system: GD2.28z.FKBP CAR; assay: Regulation of GD2.28z.FKBP CAR surface expression by shield-1 (FACS); format: cell-based, human; settings: adding or subtracting shield-1 in culture medium
From the text: FIG. 1: Characterization of the GD2.28z.FKBP CAR. T cells were transduced with lentivirus encoding the GD2.28z.FKBP CAR on day 1 after activation and subsequently cultured with various concentrations of shield-1 in the growth medium. On day 7, CAR expression was quantified via FACS.

[9] = molecular target: CD19 (Homo sapiens (Human)) (UniProt P15391)

Sequence of Lck (P06239 whole entry, species assumed): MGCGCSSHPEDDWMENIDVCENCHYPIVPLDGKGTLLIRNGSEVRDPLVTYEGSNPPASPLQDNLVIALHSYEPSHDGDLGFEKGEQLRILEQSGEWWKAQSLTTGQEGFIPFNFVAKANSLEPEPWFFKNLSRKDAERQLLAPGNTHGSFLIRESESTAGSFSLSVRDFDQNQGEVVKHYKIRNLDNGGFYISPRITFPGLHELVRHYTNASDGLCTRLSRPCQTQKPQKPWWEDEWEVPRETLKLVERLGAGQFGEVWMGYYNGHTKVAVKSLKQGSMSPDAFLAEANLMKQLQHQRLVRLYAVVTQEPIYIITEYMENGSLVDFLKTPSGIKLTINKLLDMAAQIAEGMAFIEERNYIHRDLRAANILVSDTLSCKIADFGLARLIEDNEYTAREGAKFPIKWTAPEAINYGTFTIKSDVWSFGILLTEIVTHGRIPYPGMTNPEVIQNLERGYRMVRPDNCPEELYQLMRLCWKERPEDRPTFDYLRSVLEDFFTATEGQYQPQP
Sequence of Fyn (P06241 whole entry, species assumed): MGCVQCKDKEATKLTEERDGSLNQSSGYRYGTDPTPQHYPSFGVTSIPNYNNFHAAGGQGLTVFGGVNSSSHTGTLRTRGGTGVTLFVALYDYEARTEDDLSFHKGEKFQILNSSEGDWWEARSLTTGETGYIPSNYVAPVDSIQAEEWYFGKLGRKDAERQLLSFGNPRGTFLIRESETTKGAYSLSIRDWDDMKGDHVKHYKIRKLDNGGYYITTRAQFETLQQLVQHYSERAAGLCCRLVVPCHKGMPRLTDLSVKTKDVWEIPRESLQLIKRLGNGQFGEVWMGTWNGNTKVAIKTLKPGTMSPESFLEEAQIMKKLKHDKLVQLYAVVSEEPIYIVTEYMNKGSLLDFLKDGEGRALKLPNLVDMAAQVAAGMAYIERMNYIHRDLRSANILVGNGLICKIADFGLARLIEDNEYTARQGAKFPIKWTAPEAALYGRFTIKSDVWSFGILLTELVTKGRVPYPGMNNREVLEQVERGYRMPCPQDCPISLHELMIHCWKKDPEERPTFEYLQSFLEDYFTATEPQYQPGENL

Cc1ccc(C(=O)Nc2ccc(CN3CCN(C)CC3)c(C(F)(F)F)c2)cc1C#Cc1cnc2cccnn12 [ponatinib, 3-(imidazo[1,2-b]pyridazin-3-ylethynyl)-4-methyl-N-(4-((4-methylpiperazin-1-yl)methyl)-3-(trifluoromethyl)phenyl)benzamide]
reversibility of the inhibitory effect on CAR T cell function [1]: reversible | CAR T cell cytokine secretion ([1]; expanded in drug, drug removed 18-24 hours before 24 hours co-culture): dose-dependently augmented | inhibition of Fyn [2]: does not affect the function of Fyn or Src kinases | inhibition of Src kinases [3]: does not affect the function of Fyn or Src kinases | inhibition of Lck [4]: can bind to and inhibit Lck | cytotoxic response [5]: more potent cytotoxic response | IFNγ secretion in response to tumor [6]: potently inhibited | IL-2 secretion in response to tumor [6]: potently inhibited | activation and degranulation (CD69 and CD107a co-expression) [7]: potently inhibited activation and degranulation of CAR T cells in a dose-dependent manner

CC[C@H](C(=O)N1CCCC[C@H]1C(=O)O[C@H](CCc1ccc(OC)c(OC)c1)c1cccc(OCCN2CCOCC2)c1)c1cc(OC)c(OC)c(OC)c1 [shield-1]
CAR surface expression [8]: rapidly and dose-dependently regulated

CD19.28z CAR (FMC63 scFv)
CD69 and CD107a surface expression (FACS) after 6 h co-culture [9]: 80%
